# From PubChem BioAssay (NCI)
#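 Five compound concentrations were applied to cells in 96-well plates for 48 hours; endpoints were derived by simple linear interpolation of the resulting dose-response curve. TGI is the concentration that stops growth completely.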
# Assays:
# Test in all cases: NCI tumour cell line growth inhibition, 48 h
# SK-MEL-5 melanoma = tested on: SK-MEL-5 melanoma
# UACC-257 melanoma = tested on: UACC-257 melanoma
# ACHN renal = tested on: ACHN renal
# NCI-H226 lung = tested on: NCI-H226 lung
# TK-10 renal = tested on: TK-10 renal
# CCRF-CEM leukemia = tested on: CCRF-CEM leukemia
# SF-295 CNS = tested on: SF-295 CNS
# OVCAR-3 ovarian = tested on: OVCAR-3 ovarian
# SR leukemia = tested on: SR leukemia
# U251 CNS = tested on: U251 CNS
# M14 melanoma = tested on: M14 melanoma
# SF-268 CNS = tested on: SF-268 CNS
# UO-31 renal = tested on: UO-31 renal
# K-562 leukemia = tested on: K-562 leukemia
# KM12 colon = tested on: KM12 colon
# NCI-H460 lung = tested on: NCI-H460 lung
# T-47D breast = tested on: T-47D breast
# DU-145 prostate = tested on: DU-145 prostate
# MCF7 breast = tested on: MCF7 breast
# RPMI-8226 leukemia = tested on: RPMI-8226 leukemia
# OVCAR-4 ovarian = tested on: OVCAR-4 ovarian
# MALME-3M melanoma = tested on: MALME-3M melanoma
# HCC-2998 colon = tested on: HCC-2998 colon
# OVCAR-8 ovarian = tested on: OVCAR-8 ovarian
# HCT-116 colon = tested on: HCT-116 colon
# SNB-75 CNS = tested on: SNB-75 CNS
# HS 578T breast = tested on: HS 578T breast
# CAKI-1 renal = tested on: CAKI-1 renal
# EKVX NSCLC = tested on: EKVX NSCLC
# LOX IMVI melanoma = tested on: LOX IMVI melanoma
# MOLT-4 leukemia = tested on: MOLT-4 leukemia
# 786-0 renal = tested on: 786-0 renal
# SNB-19 CNS = tested on: SNB-19 CNS
# SK-MEL-2 melanoma = tested on: SK-MEL-2 melanoma
# SW-620 colon = tested on: SW-620 colon
# NCI-H23 lung = tested on: NCI-H23 lung
# HL-60(TB) leukemia = tested on: HL-60(TB) leukemia
# COLO 205 colon = tested on: COLO 205 colon
# NCI/ADR-RES ovarian = tested on: NCI/ADR-RES ovarian
# HCT-15 colon = tested on: HCT-15 colon
# HT29 colon = tested on: HT29 colon
# SK-OV-3 ovarian = tested on: SK-OV-3 ovarian
# IGROV1 ovarian = tested on: IGROV1 ovarian
# SF-539 CNS = tested on: SF-539 CNS
# NCI-H522 lung = tested on: NCI-H522 lung
# SN12C renal = tested on: SN12C renal
# MDA-MB-231 breast = tested on: MDA-MB-231 breast
# MDA-MB-435 = tested on: MDA-MB-435
# UACC-62 melanoma = tested on: UACC-62 melanoma
# A549 NSCLC = tested on: A549 NSCLC
# MDA-N = tested on: MDA-N
# SK-MEL-28 melanoma = tested on: SK-MEL-28 melanoma
# PC-3 prostate = tested on: PC-3 prostate
# A498 renal = tested on: A498 renal
# HOP-62 NSCLC = tested on: HOP-62 NSCLC
# RXF 393 renal = tested on: RXF 393 renal
# OVCAR-5 ovarian = tested on: OVCAR-5 ovarian
# HOP-92 NSCLC = tested on: HOP-92 NSCLC
smiles,measurement,setting,value
COC(CN(C)C(=S)Nc1cccc2ccccc12)OC,TGI,SK-MEL-5 melanoma,> 10 µM
same,TGI,UACC-257 melanoma,> 10 µM
same,TGI,ACHN renal,> 10 µM
same,TGI,NCI-H226 lung,> 10 µM
same,TGI,TK-10 renal,> 10 µM
same,TGI,CCRF-CEM leukemia,> 10 µM
same,TGI,SF-295 CNS,> 10 µM
same,TGI,OVCAR-3 ovarian,> 10 µM
same,TGI,SR leukemia,> 10 µM
same,TGI,U251 CNS,> 10 µM
same,TGI,M14 melanoma,> 10 µM
same,TGI,SF-268 CNS,> 10 µM
same,TGI,UO-31 renal,> 10 µM
same,TGI,K-562 leukemia,> 10 µM
same,TGI,KM12 colon,> 10 µM
same,TGI,NCI-H460 lung,> 10 µM
same,TGI,T-47D breast,> 10 µM
same,TGI,DU-145 prostate,> 10 µM
same,TGI,MCF7 breast,> 10 µM
same,TGI,RPMI-8226 leukemia,> 10 µM
same,TGI,OVCAR-4 ovarian,> 10 µM
same,TGI,MALME-3M melanoma,> 10 µM
same,TGI,HCC-2998 colon,> 10 µM
same,TGI,OVCAR-8 ovarian,> 10 µM
same,TGI,HCT-116 colon,> 10 µM
same,TGI,SNB-75 CNS,> 10 µM
same,TGI,HS 578T breast,> 10 µM
same,TGI,CAKI-1 renal,> 10 µM
same,TGI,EKVX NSCLC,> 10 µM
same,TGI,LOX IMVI melanoma,> 10 µM
same,TGI,MOLT-4 leukemia,> 10 µM
same,TGI,786-0 renal,> 10 µM
same,TGI,SNB-19 CNS,> 10 µM
same,TGI,SK-MEL-2 melanoma,> 10 µM
same,TGI,SW-620 colon,> 10 µM
same,TGI,NCI-H23 lung,> 10 µM
same,TGI,HL-60(TB) leukemia,> 10 µM
same,TGI,COLO 205 colon,> 10 µM
same,TGI,NCI/ADR-RES ovarian,> 10 µM
same,TGI,HCT-15 colon,> 10 µM
same,TGI,HT29 colon,> 10 µM
same,TGI,SK-OV-3 ovarian,> 10 µM
same,TGI,IGROV1 ovarian,> 10 µM
same,TGI,SF-539 CNS,> 10 µM
same,TGI,NCI-H522 lung,> 10 µM
same,TGI,SN12C renal,> 10 µM
same,TGI,MDA-MB-231 breast,> 10 µM
same,TGI,MDA-MB-435,> 10 µM
same,TGI,UACC-62 melanoma,> 10 µM
same,TGI,A549 NSCLC,> 10 µM
same,TGI,MDA-N,> 10 µM
same,TGI,SK-MEL-28 melanoma,> 10 µM
same,TGI,PC-3 prostate,> 10 µM
same,TGI,A498 renal,> 10 µM
same,TGI,HOP-62 NSCLC,> 10 µM
same,TGI,RXF 393 renal,> 10 µM
COC(=O)C1CCC(=O)N1CN(C(C)=O)c1cccc(O)c1 (configuration not stated),TGI,SK-MEL-5 melanoma,> 100 µM
same,TGI,UACC-257 melanoma,> 100 µM
same,TGI,ACHN renal,> 100 µM
same,TGI,NCI-H226 lung,> 100 µM
same,TGI,TK-10 renal,> 100 µM
same,TGI,SF-295 CNS,> 100 µM
same,TGI,OVCAR-3 ovarian,> 100 µM
same,TGI,U251 CNS,> 100 µM
same,TGI,M14 melanoma,> 100 µM
same,TGI,SF-268 CNS,> 100 µM
same,TGI,UO-31 renal,> 100 µM
same,TGI,K-562 leukemia,> 100 µM
same,TGI,KM12 colon,> 100 µM
same,TGI,NCI-H460 lung,> 100 µM
same,TGI,T-47D breast,> 100 µM
same,TGI,DU-145 prostate,> 100 µM
same,TGI,MCF7 breast,> 100 µM
same,TGI,RPMI-8226 leukemia,> 100 µM
same,TGI,OVCAR-4 ovarian,> 100 µM
same,TGI,MALME-3M melanoma,> 100 µM
same,TGI,OVCAR-8 ovarian,> 100 µM
same,TGI,HCT-116 colon,> 100 µM
same,TGI,SNB-75 CNS,> 100 µM
same,TGI,HS 578T breast,> 100 µM
same,TGI,CAKI-1 renal,> 100 µM
same,TGI,EKVX NSCLC,> 100 µM
same,TGI,LOX IMVI melanoma,> 100 µM
same,TGI,MOLT-4 leukemia,> 100 µM
same,TGI,786-0 renal,> 100 µM
same,TGI,SNB-19 CNS,> 100 µM
same,TGI,SK-MEL-2 melanoma,> 100 µM
same,TGI,SW-620 colon,> 100 µM
same,TGI,NCI-H23 lung,> 100 µM
same,TGI,HL-60(TB) leukemia,> 100 µM
same,TGI,COLO 205 colon,> 100 µM
same,TGI,NCI/ADR-RES ovarian,> 100 µM
same,TGI,HCT-15 colon,> 100 µM
same,TGI,HT29 colon,> 100 µM
same,TGI,SK-OV-3 ovarian,> 100 µM
same,TGI,IGROV1 ovarian,> 100 µM
same,TGI,SF-539 CNS,> 100 µM
same,TGI,NCI-H522 lung,> 100 µM
same,TGI,OVCAR-5 ovarian,> 100 µM
same,TGI,SN12C renal,> 100 µM
same,TGI,MDA-MB-231 breast,> 100 µM
same,TGI,MDA-MB-435,> 100 µM
same,TGI,UACC-62 melanoma,> 100 µM
same,TGI,HOP-92 NSCLC,> 100 µM
same,TGI,A549 NSCLC,> 100 µM
same,TGI,MDA-N,> 100 µM
same,TGI,SK-MEL-28 melanoma,> 100 µM
same,TGI,PC-3 prostate,> 100 µM
same,TGI,A498 renal,> 100 µM
same,TGI,HOP-62 NSCLC,> 100 µM
same,TGI,RXF 393 renal,> 100 µM
Cc1c(C)c(S(=O)(=O)N(CCCCN)OCCCN)c(C)c2c1OC(C)(C)CC2,TGI,SK-MEL-5 melanoma,> 100 µM
same,TGI,UACC-257 melanoma,61.4 µM
same,TGI,ACHN renal,47.2 µM
same,TGI,NCI-H226 lung,30.1 µM
same,TGI,TK-10 renal,37.8 µM
same,TGI,CCRF-CEM leukemia,98.3 µM
same,TGI,SF-295 CNS,40.6 µM
same,TGI,OVCAR-3 ovarian,30.6 µM
same,TGI,SR leukemia,> 100 µM
same,TGI,U251 CNS,> 100 µM
same,TGI,M14 melanoma,98.3 µM
same,TGI,SF-268 CNS,49.6 µM
same,TGI,UO-31 renal,43 µM
same,TGI,K-562 leukemia,> 100 µM
same,TGI,KM12 colon,42.8 µM
same,TGI,NCI-H460 lung,41.2 µM
same,TGI,T-47D breast,> 100 µM
same,TGI,DU-145 prostate,57.7 µM
same,TGI,MCF7 breast,> 100 µM
same,TGI,RPMI-8226 leukemia,66.5 µM
same,TGI,OVCAR-4 ovarian,30 µM
same,TGI,HCC-2998 colon,20.8 µM
same,TGI,OVCAR-8 ovarian,42 µM
same,TGI,HCT-116 colon,35.8 µM
same,TGI,SNB-75 CNS,32.7 µM
same,TGI,HS 578T breast,36.1 µM
same,TGI,CAKI-1 renal,> 100 µM
same,TGI,EKVX NSCLC,31.9 µM
same,TGI,LOX IMVI melanoma,40.4 µM
same,TGI,MOLT-4 leukemia,75.6 µM
same,TGI,786-0 renal,31.9 µM
same,TGI,SNB-19 CNS,37.3 µM
same,TGI,SK-MEL-2 melanoma,24.9 µM
same,TGI,SW-620 colon,> 100 µM
same,TGI,NCI-H23 lung,38.1 µM
same,TGI,HL-60(TB) leukemia,> 100 µM
same,TGI,COLO 205 colon,> 100 µM
same,TGI,NCI/ADR-RES ovarian,> 100 µM
same,TGI,HCT-15 colon,46.9 µM
same,TGI,HT29 colon,40.4 µM
same,TGI,SK-OV-3 ovarian,33.8 µM
same,TGI,IGROV1 ovarian,20.2 µM
same,TGI,SF-539 CNS,64.2 µM
same,TGI,NCI-H522 lung,34.1 µM
same,TGI,OVCAR-5 ovarian,34.7 µM
same,TGI,SN12C renal,> 100 µM
same,TGI,MDA-MB-231 breast,99.4 µM
same,TGI,MDA-MB-435,45.1 µM
same,TGI,UACC-62 melanoma,72.2 µM
same,TGI,HOP-92 NSCLC,80.6 µM
same,TGI,A549 NSCLC,56.3 µM
same,TGI,MDA-N,> 100 µM
same,TGI,SK-MEL-28 melanoma,50.7 µM
same,TGI,PC-3 prostate,23.3 µM
same,TGI,A498 renal,41.6 µM
same,TGI,HOP-62 NSCLC,32.6 µM
